Laboratory results reported in patent US5602259A, “Method for producing 4-hydroxy-5-methyl-3[2H]-furanone and uses of same” (priority 1993, dated 1997).

How the values were obtained:
[1] = Anti-oxidation activity (1): inhibition of autonomous oxidation of linolenic acid, absorbance at 500 nm; format: biochemical; details: for concentration showing 90% inhibition of autonomous oxidation of linolenic acid: pH 7.4, 37° C., 24 hours, for the extract: concentration of 4-hydroxy-5-methyl-3[2H]-furanone
Method: (§1) An anti-oxidation activity of 4-hydroxy-5-methyl-3[2H]-furanone was examined as follows:
To 1.0 ml of 0.2M potassium phosphate buffer(pH 7.4) containing 2 mg/ml of linolenic acid and 10 mg/ml of Tween-20 was added the extract obtained from Lichrosorb RP-18 column in Example 1, which contains a serial concentrations of 10~2000 ppm of 4-hydroxy-5-methyl-3[2H]-furanone. […] The resulting mixture was allowed at 37° C. for 24 hours. 0.1 ml of the reaction mixture was taken and diluted with 9.7 ml of ethanol. 0.1 ml of 30% ammonium thiocyanide and 0.1 ml of a mixture of 5% ferrous ammonium sulfate and 3.5% […] were added, and 3 minutes later, an absorbance at 500 nm was measured to evaluate an automatic oxidation of fatty acid.

[2] = Anti-oxidation activity (2): prevention of oxidation of unsaturated fatty acid over time (FIG. 5); format: biochemical; details: 200 ppm, 37° C., pH 7.4
Method: as §1
1.0 ml of 0.2M potassium phosphate buffer(pH 7.4) containing 2mg/ml of linolenic acid, 10 mg/ml of Tween-20 and 200 ppm of L-ascorbic acid, tocopherol or 4-hydroxy-5-methyl-3[2H]-furanone was allowed to stand at 37° C. for 24 hours. For a control, 1.0 ml of 0.2M potassium phosphate buffer(pH 7.4) containing 2 mg/ml of linolenic acid and 10 mg/ml of Tween-20 was employed.
The same procedure as that of Experimental Example 2 was carried out to evaluate the anti-oxidation activity of test compounds.
In FIG. 5, the longitudinal axis indicates an amount of fatty peroxide represented by an absorbance at 500 nm and the horizontal axis indicates the time in days.

[3] = in vitro; format: cell-based; details: fibroblast cells
Source text: (§2) 4-hydroxy-5-methyl-3[2H]-furanone obtained by the method of the invention has an excellent activity to inhibit melanin formation.

[4] = system: murine melanoma cells; experiment: Inhibitive effect on melanin formation in melanoma cells; format: cell-based; details: Mus musculus, 48 h, 37° C., by observing the color of the cells, read-out: concentration with inhibitive effect on melanin formation within melanoma cells
Method: as §2
To a T-shaped flask containing […] of Eagle's medium containing 10% fetal calf essential medium was added murine melanoma cells in an amount of 5×10^4 cells/30 ml. […] After the cultivation, the cells were collected and examined for melanin formation of the cells by observing the color of the cells.

[5] = biological target: T1, tyrosinase (Agaricus bisporus, UniProt C7FF04); experiment: Tyrosinase-inhibiting action; format: biochemical; details: pH 6.8, 37° C., 10 minutes, tyrosine substrate
T1 construct: purchased SIGMA
T1 sequence (C7FF04 2-392 limits assumed): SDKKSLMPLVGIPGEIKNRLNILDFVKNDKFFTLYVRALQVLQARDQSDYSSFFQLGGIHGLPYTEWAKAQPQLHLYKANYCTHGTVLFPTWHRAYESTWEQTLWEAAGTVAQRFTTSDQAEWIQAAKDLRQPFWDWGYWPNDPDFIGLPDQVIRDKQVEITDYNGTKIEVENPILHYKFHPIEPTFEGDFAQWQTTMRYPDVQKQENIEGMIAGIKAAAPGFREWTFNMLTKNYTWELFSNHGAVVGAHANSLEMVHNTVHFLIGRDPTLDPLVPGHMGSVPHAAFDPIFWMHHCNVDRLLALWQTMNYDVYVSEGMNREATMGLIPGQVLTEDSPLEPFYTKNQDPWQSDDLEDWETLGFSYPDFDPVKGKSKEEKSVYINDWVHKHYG
Method: As an enzyme, tyrosinase purchased from SIGMA was used. […] Water were used to dilute the test compounds. As a control, 0.9 ml of 1:1 mixture of ethanol and water was used. […] The test tube was quickly cooled in an ice water bath to stop the reaction, and the absorbance was measured at 475 nm. The tyrosinase-inhibitory activities of the test compounds were calculated by using the following equation: [formula] From the inhibitions(%) of a series of dilutions of test compounds, IC50, i.e., the concentration of test compound which inhibit tyrosinase by 50% was calculated for each test compound.

Structure (SMILES)	anti-oxidation activity (in words) ([1]; compared with maltol, kojic acid or L-ascorbic acid)	prevention of oxidation of unsaturated fatty acid (in words) [2]	MCC at 48 h [3] [µg/mL]	minimal effective concentration [4] [µg/mL]	IC50 [5] [µM]	concentration showing 90% inhibition of autonomous oxidation of linolenic acid [1] [ppm]
CC1=C(O)C(=O)CO1 [4-hydroxy-5-methyl-3[2H]-furanone]	superior over maltol, kojic acid or L-ascorbic acid	can prevent more efficiently the oxidation of unsaturated fatty acid than the same amount of L-ascorbic acid or α-tocopherol	> 500	10 to 20	52.6	–
O=c1cc(CO)occ1O [kojic acid]	–	–	> 500	–	–	600
Cc1occc(=O)c1O [maltol]	–	–	–	–	–	460
O=C1O[C@H]([C@@H](O)CO)C(O)=C1O [ascorbic acid, L-ascorbic acid]	–	–	50	–	–	–
